# Reference: patent US12486267B2, “Imidazo[1,2-A]pyridine and [1,2,4]triazolo[1,5-A]pyridine derivatives as TLR9 inhibitors for the treatment of fibrosis” (BRISTOL-MYERS SQUIBB COMPANY, priority 2020, dated 2025)
# Tests used:
# Format in all cases: cell-based
# human TLR7 = target: T1, human TLR7 (Homo sapiens, UniProt Q9NYK1); experiment: TLR7 inhibition reporter assay (HEK-Blue cells, SEAP reporter); conditions: HEK-Blue cells overexpressing human TLR7; stimulated with gardiquimod 7.5 μM; 22 hour incubation; SEAP readout
# T1 sequence (Q9NYK1 27-1049): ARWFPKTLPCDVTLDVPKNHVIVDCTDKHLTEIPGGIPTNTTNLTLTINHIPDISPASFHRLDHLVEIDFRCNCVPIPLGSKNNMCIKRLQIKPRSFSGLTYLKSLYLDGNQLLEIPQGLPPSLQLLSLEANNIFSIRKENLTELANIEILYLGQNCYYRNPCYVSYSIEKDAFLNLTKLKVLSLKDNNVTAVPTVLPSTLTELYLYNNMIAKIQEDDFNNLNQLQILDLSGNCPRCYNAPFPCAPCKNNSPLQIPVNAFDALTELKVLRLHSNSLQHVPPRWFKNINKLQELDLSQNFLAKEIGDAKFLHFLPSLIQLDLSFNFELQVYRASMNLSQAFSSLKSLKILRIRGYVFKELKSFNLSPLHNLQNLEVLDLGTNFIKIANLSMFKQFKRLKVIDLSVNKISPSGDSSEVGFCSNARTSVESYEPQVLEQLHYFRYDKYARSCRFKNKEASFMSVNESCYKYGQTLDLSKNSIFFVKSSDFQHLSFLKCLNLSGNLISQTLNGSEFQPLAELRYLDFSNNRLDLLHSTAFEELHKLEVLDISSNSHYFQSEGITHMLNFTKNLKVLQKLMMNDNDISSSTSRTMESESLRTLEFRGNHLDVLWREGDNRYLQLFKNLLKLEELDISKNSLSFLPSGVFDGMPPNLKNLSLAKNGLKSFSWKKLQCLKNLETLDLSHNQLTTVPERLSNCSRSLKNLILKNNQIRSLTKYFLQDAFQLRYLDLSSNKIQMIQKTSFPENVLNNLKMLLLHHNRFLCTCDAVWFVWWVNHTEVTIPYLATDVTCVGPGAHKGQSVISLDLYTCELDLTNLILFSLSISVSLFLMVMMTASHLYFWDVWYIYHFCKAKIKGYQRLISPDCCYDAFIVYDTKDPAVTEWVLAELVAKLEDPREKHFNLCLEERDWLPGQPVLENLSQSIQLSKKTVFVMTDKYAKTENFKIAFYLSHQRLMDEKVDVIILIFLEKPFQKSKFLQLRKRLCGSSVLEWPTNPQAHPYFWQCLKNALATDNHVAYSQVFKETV
# How it was run: (§1)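 HEK-Blue cells with an NF-κB/AP-1-driven SEAP reporter were pre-treated 30 min at room temperature with compound (0.05 nM–50 μM), then stimulated with gardiquimod 7.5 μM (TLR7), R848 15.9 μM (TLR8) or ODN2006 5 nM (TLR9). After 22 h at 37 °C, SEAP was read; % inhibition was referenced to agonist+DMSO and known-inhibitor wells.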
# human TLR8 = target: T2, human TLR8 (Homo sapiens, UniProt Q9NR97); experiment: TLR8 inhibition reporter assay (HEK-Blue cells, SEAP reporter); conditions: HEK-Blue cells overexpressing human TLR8; stimulated with R848 15.9 μM; 22 hour incubation; SEAP readout
# T2 sequence (Q9NR97 27-1041): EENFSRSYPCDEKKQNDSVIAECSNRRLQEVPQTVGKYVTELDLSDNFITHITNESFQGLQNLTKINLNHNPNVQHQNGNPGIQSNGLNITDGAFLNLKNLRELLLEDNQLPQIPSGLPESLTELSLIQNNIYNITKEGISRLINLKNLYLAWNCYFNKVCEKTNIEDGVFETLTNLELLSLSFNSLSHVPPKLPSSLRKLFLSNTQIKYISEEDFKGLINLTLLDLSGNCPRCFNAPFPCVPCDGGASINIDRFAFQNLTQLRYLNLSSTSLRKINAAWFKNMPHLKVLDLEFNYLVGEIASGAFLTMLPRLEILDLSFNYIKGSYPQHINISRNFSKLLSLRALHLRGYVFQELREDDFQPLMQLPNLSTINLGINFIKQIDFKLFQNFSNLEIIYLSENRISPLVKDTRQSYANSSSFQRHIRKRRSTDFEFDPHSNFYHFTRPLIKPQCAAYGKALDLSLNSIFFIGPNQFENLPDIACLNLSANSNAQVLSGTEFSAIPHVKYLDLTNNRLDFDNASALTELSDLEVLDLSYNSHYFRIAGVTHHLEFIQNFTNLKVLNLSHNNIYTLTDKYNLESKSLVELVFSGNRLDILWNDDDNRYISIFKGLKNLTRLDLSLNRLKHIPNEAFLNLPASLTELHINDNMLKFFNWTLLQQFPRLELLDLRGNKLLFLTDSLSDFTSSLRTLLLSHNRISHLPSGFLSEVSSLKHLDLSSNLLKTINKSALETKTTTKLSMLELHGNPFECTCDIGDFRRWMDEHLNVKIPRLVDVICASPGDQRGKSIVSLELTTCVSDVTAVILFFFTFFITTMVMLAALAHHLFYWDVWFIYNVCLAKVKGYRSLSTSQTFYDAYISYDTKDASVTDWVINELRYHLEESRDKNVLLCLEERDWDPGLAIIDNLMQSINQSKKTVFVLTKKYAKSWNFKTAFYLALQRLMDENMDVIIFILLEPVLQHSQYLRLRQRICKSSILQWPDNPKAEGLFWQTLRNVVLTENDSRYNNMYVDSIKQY
# How it was run: as §1
# human TLR9 = target: T3, human TLR9 (Homo sapiens, UniProt Q9NR96); experiment: TLR9 inhibition reporter assay (HEK-Blue cells, SEAP reporter); conditions: HEK-Blue cells overexpressing human TLR9; stimulated with ODN2006 5 nM; 22 hour incubation; SEAP readout
# T3 sequence (Q9NR96 26-1032): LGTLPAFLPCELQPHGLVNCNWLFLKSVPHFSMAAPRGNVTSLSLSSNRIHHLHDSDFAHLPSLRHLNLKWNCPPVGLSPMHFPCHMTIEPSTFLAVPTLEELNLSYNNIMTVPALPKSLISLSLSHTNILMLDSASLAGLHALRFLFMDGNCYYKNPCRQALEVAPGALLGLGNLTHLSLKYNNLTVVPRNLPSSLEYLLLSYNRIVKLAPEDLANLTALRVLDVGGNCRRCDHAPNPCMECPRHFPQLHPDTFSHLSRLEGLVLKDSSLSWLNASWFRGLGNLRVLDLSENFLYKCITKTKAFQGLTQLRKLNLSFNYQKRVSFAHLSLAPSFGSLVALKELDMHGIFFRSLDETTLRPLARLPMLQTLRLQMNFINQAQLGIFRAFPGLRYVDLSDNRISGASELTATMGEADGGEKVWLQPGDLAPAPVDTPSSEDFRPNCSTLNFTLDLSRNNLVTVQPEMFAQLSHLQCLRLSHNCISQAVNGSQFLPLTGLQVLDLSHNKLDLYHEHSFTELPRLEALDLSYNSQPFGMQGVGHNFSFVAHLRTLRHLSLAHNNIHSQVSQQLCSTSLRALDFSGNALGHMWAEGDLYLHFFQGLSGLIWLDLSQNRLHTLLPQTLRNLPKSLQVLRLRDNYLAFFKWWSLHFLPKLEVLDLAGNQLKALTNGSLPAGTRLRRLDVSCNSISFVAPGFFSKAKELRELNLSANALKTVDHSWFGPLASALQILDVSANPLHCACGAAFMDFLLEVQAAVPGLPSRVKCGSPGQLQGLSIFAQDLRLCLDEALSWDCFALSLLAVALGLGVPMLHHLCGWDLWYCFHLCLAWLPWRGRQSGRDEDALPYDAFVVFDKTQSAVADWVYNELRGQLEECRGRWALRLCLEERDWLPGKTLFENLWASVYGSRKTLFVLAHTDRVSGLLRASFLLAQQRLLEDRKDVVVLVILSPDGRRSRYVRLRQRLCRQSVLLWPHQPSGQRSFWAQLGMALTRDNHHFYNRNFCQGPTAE
# How it was run: as §1
Structure (SMILES),IC50 (human TLR7) [µM],IC50 (human TLR8) [µM],IC50 (human TLR9) [µM]
"CC(C)N1CCC(N2CCC(c3ccc4nc(-c5ccc(S(C)(=O)=O)cc5)cn4c3F)CC2)CC1 [Example 73, 5-fluoro-6-(1′-isopropyl-[1,4′-bipiperidin]-4-yl)-2-(4-(methylsulfonyl)phenyl) imidazo[1,2-a]pyridine]",> 50,23,0.106
"COc1ccc(-c2cn3c(n2)CCC(C2CCN(C4CCN(C(=O)C(C)C)CC4)CC2)C3)cc1OC (single isomer, unassigned) [Example 41, 1-(4-(2-(3,4-dimethoxyphenyl)-5,6,7,8-tetrahydroimidazo[1,2-a]pyridin-6-yl)-[1,4′-bipiperidin]-1′-yl)-2-methylpropan-1-one]",> 50,> 50,0.161
"CS(=O)(=O)c1ccc(-c2cn3cc(C4CCN(C5CC6CCC(C5)N6CC5CC5)CC4)cc(F)c3n2)cc1 (single isomer, unassigned) [Example 115, 6-(1-(8-(cyclopropylmethyl)-8-azabicyclo[3.2.1]octan-3-yl)piperidin-4-yl)-8-fluoro-2-(4-(methylsulfonyl)phenyl)imidazo[1,2-a]pyridine]",1.7,49,0.043
"COc1ccc(-c2cn3c(n2)CCC(C2CCN(C4CCN(CC(C)C)CC4)CC2)C3)cc1OC (racemic) [Example 31, 2-(3,4-dimethoxyphenyl)-6-(1′-isobutyl-[1,4′-bipiperidin]-4-yl)-5,6,7,8-tetrahydroimidazo[1,2-a]pyridine]",4.6,> 50,0.026
"CS(=O)(=O)c1ccc(-c2cn3cc(C4CCN(C5CC6CCC(C5)N6C5COC5)CC4)cc(F)c3n2)cc1 (single isomer, unassigned) [Example 120, 8-fluoro-2-(4-(methylsulfonyl)phenyl)-6-(1-(8-(oxetan-3-yl)-8-azabicyclo[3.2.1]octan-3-yl)piperidin-4-yl)imidazo[1,2-a]pyridine]",16.7,> 50,0.709
"COc1ccc(-c2cn3cc(C4CCN(C5CC6(C5)CN(CC5CC5)C6)CC4)cc(C)c3n2)cc1OC [Example 16, 6-(1-(2-(cyclopropylmethyl)-2-azaspiro[3.3]heptan-6-yl)piperidin-4-yl)-2-(3,4-dimethoxyphenyl)-8-methylimidazo[1,2-a]pyridine]",2,> 50,0.014
"COc1ccc(-c2cn3c(n2)CCC(C2CCN(C4CCN(C(=O)C5CC5)CC4)CC2)C3)cc1OC (single isomer, unassigned) [Example 44, cyclopropyl(4-(2-(3,4-dimethoxyphenyl)-5,6,7,8-tetrahydroimidazo[1,2-a]pyridin-6-yl)-[1,4′-bipiperidin]-1′-yl)methanone]",45,> 50,0.314
"CC(C)CN1CCC(N2CCC(c3ccc4nc(-c5ccc(S(C)(=O)=O)cc5)cn4c3F)CC2)CC1 [Example 131, 5-fluoro-6-(1′-isobutyl-[1,4′-bipiperidin]-4-yl)-2-(4-(methylsulfonyl)phenyl) imidazo[1,2-a]pyridine]",18.1,16.7,0.058
"CS(=O)(=O)c1ccc(-c2cn3cc(C4CCN(C5CC6CCC(C5)N6C5CCC5)CC4)cc(F)c3n2)cc1 (single isomer, unassigned) [Example 117, 6-(1-(8-cyclobutyl-8-azabicyclo[3.2.1]octan-3-yl)piperidin-4-yl)-8-fluoro-2-(4-(methylsulfonyl)phenyl)imidazo[1,2-a]pyridine]",1.5,20,0.022
"COc1ccc(-c2cn3c(n2)CC[C@H](C2CCN(C4CC5CCC(C4)N5C(C)C)CC2)C3)cc1OC (single isomer, unassigned) [Example 134]",> 50,> 50,0.067
"COc1ccc(-c2cn3cc(C4CCN(C5CC6(C5)CN(C5CCC5)C6)CC4)cc(C)c3n2)cc1OC [Example 14, 6-(1-(2-cyclobutyl-2-azaspiro[3.3]heptan-6-yl)piperidin-4-yl)-2-(3,4-dimethoxyphenyl)-8-methylimidazo[1,2-a]pyridine]",> 50,> 50,0.068
"CC(C)N1CCC(N2CCC(c3cn4cc(-c5ccc(S(C)(=O)=O)cc5)nc4cc3F)CC2)CC1 [Example 70, 7-fluoro-6-(1′-isopropyl-[1,4′-bipiperidin]-4-yl)-2-(4-(methylsulfonyl)phenyl) imidazo[1,2-a]pyridine]",22.9,> 50,0.303
"CC(C)CN1CCC(N2CCC(c3cn4cc(-c5ccc(S(C)(=O)=O)cc5)nc4cc3F)CC2)CC1 [Example 123, 7-fluoro-6-(1′-isobutyl-[1,4′-bipiperidin]-4-yl)-2-(4-(methylsulfonyl)phenyl) imidazo[1,2-a]pyridine]",> 50,> 50,0.496
"CC(C)CN1C2CCC1CC(N1CCC([C@@H]3CCc4nc(-c5ccc(S(C)(=O)=O)cc5)cn4C3)CC1)C2 (single isomer, unassigned) [Example 82]",9.2,> 50,0.021
